Data as given in patent US20040097473A1, “Use of p38 inhibitors for the treatment of smoke inhalation” (priority 2003, published 2004).

What was measured:
[1] = system: Citric Acid-Induced Cough in Guinea Pigs; experiment: Citric Acid Induced Cough Model (direct antitussive activity); assay type: in vivo, guinea pig; conditions: conscious guinea pigs, inhaled citric acid (0.4% for 1 minute) cough challenge; FIG. 4
Method: The directed antitussive activity of the compound in question if first assessed, by a 10 to 30 minute pretreatment period by intraperitoneal injection or a 1 hour pretreatment period for oral administration. The animals (guinea pigs) are then subjected to an inhaled citric acid-induced cough challenge. Inhalation of citric acid (CA; 0.4% for 1 minute) induced 11 to 15 coughs during the exposure and 12-minute monitoring period in conscious guinea pigs.

[2] = system: Antigen-Induced Hypertussive Activity to Citric Acid in Guinea Pigs; experiment: Antigen-Induced Hypertussive Model; assay type: in vivo, guinea pig; conditions: sensitized guinea pigs exposed to inhaled ovalbumin
Method: The effects of the compound are then assessed on the hypertussive response that occurs 72 hours post aerosol exposure to antigen or LTD4 exposure. Treatment of the animals occurs with the drug prior and/or after antigen or LTD4 challenge, but not on the day of citric acid challenge. Inhalation of citric acid (CA; 0.4% for 1 minute) induced 11 to 15 coughs during the exposure and 12-minute monitoring period in conscious guinea pigs.

[3] = system: LTD4-induced hypertussive response in the Guinea Pig; experiment: LTD4-Induced Hypertussive Model; assay type: in vivo; conditions: oral 30 mg/kg b.i.d.; LTD4 inhalation 10 ug/ml for 1 minute; 72 hours after exposure
Method: The effects of the compound are then assessed on the hypertussive response that occurs 72 hours post aerosol exposure to antigen or LTD4 exposure. Treatment of the animals occurs with the drug prior and/or after antigen or LTD4 challenge, but not on the day of citric acid challenge. Similarly, inhalation of LTD4 (10 ug/ml for 1 minute) increased cough incidence and airway esoinophiles 72 hours after exposure. Oral treatment with Compound I (30 mg/kg, b.i.d.), blocked the LTD4-induced esoinophilia, and normalized the cough response, as shown in FIG. 5 herein.

For `COc1nccc(-c2c(-c3ccc(F)cc3)ncn2[C@H]2CC[C@H](O)CC2)n1` [Compound I, trans-1-(4-Hydroxycyclohexyl)-4-(4-fluorophenyl)-5-[(2-methoxy)pyrimidin-4-yl]imidazole], the direct antitussive effect [1] was “no direct antitussive effect”, the airway eosinophilia ([2]; bronchoalveolar lavage) was “reduce airway eosinophilia” and the “hypertussive state (citric acid-induced cough incidence)” value ([2]; citric acid challenge 72 hours post antigen) was “normalizes the hypertussive state”. For the same molecule, the LTD4-induced eosinophilia [3] was “blocked” and the cough response [3] was “normalized”.
